{"source": "paper PMC7198601", "about": "“Side chain effect in the modulation of αvβ3/α5β1 integrin activity via clickable isoxazoline-RGD-mimetics: development of molecular delivery systems” (Scientific Reports, 2020)", "key": {"αvβ3 integrin [1]": {"target": "T1, αvβ3 integrin (Homo sapiens, UniProt P05106+P06756)", "T1 sequence (P06756 31-889 limits assumed)": "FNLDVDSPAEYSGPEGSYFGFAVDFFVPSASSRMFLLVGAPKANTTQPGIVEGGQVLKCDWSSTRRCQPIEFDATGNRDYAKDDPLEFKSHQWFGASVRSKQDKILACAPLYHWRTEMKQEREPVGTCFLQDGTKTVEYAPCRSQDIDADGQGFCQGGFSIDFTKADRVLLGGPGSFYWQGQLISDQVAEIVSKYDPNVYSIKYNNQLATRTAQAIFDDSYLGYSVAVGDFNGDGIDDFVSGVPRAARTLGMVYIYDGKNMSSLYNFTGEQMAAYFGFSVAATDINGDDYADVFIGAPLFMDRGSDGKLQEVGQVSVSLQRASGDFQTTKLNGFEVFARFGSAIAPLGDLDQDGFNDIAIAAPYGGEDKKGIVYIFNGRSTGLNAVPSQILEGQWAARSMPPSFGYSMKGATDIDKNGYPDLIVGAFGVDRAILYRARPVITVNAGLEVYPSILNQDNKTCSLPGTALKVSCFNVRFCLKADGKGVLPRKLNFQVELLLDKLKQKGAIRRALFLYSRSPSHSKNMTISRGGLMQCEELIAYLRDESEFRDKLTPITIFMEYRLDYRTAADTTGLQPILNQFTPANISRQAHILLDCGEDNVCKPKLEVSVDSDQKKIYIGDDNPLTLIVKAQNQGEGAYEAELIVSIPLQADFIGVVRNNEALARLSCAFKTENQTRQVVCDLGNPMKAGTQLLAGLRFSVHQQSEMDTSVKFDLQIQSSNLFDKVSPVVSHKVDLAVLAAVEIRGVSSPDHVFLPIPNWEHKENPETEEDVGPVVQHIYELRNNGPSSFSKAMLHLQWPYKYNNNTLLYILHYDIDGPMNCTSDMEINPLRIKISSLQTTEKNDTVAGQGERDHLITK", "T1 sequence (P06756 891-1048 partner limits assumed)": "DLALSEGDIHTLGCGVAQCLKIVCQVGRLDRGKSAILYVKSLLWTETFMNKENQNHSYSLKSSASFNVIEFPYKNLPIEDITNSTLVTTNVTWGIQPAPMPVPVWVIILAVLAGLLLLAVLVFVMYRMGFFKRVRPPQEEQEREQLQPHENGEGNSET", "T1 sequence (P05106 27-788)": "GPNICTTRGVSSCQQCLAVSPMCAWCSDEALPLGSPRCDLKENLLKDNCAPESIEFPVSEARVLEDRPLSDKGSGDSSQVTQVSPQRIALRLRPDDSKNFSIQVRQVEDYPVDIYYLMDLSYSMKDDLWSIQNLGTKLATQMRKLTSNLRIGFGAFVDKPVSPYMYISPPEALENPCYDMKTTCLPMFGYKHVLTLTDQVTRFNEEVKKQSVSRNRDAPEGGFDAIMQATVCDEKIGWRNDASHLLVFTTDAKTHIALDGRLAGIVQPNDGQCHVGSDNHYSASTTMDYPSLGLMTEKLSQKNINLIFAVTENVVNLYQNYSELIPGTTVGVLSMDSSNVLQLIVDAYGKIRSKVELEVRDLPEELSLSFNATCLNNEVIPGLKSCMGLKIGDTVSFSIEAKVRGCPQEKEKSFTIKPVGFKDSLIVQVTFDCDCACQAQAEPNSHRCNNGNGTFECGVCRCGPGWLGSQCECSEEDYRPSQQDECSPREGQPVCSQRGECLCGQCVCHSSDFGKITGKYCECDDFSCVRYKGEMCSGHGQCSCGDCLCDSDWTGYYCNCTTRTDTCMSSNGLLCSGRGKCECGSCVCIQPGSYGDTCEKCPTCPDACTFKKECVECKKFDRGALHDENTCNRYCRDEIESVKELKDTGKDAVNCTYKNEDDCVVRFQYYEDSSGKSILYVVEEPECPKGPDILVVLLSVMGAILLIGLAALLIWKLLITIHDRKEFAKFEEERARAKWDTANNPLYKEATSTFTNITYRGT", "experiment": "Cell adhesion assay: SK-MEL-24 cells to immobilized fibronectin (αvβ3 integrin-mediated)", "details": "for αvβ3 behaviour (agonist/antagonist): SK-MEL-24 cell adhesion to fibronectin", "protocol": "(§1) The ability of the synthesized racemic ligands to inhibit the adhesion of K562 cells (human erythroleukemic cells, expressing α5β1 integrin) or SK-MEL-24 cells (human malignant melanoma cells, expressing αvβ3 integrin) to immobilized fibronectin was evaluated[29]. […] In these experiments, the cells were seeded onto plates coated with fibronectin and allowed to adhere before quantitation of the number of adherent cells, in presence of increasing concentrations of the compounds.\n(§2) SK-MEL-24 (American Tissue Culture Collection, ATCC, Rockville, MD) were routinely grown in minimum essential medium (MEM, Cambrex, Walkersville, MD) supplemented with 10% fetal bovine serum (FBS), nonessential amino acids, and sodium pyruvate. K-562 (ATCC, Rockville, MD) were maintained as a stationary suspension culture in RPMI-1640 and L-glutamine with 10% FBS (Invitrogen (Carlsbad, CA). Cells were kept at 37 °C in a 5% CO2 humidified atmosphere. Forty hours before experiments, K-562 were treated with 25 ng/mL PMA (Sigma-Aldrich SRL, Milan, Italy) to induce differentiation and to increase expression of cell surface antigens[50].\n(§3) Plates (96 wells) (Corning Costar, Celbio, Milan,Italy) were coated by passive adsorption with fibronectin (10 µg/mL) or poly-L-lysine (0.002%) (Sigma-Aldrich SRL) overnight at 4 °C. Cells were counted with a haemocytometer and pre-incubated with different concentrations of each compound or with the vehicle (methanol) for 30 min at room temperature to reach a ligand-receptor equilibrium. Stock solutions (10^–2 M) of the assayed compounds were prepared in phosphate-buffered saline (PBS). […] This product is a chromogenic substrate for β-N-acetylglucosaminidase that is transformed in 4-nitrophenol whose absorbance can be measured at 405 nm. As previously described[51], there is a linear correlation between absorbance and enzymatic activity. Therefore, it is possible to identify the number of adherent cells among treated wells, interpolating the absorbance values of unknowns in a calibration curve. The reaction was blocked by addition of 100 µL of a stopping solution [50 µM glycine and 5 µM EDTA (pH 10.4)], and the plates were read in an EnSpire Multimode Plate Reader (PerkinElmer, Waltham, MA, USA). Experiments were carried out in quadruplicate and repeated at least three times. Data analysis and IC50/EC50 values were calculated using Graph-Pad Prism 5.0 (GraphPad Software, San Diego, CA)."}, "α5β1 integrin [2]": {"target": "T2, α5β1 integrin (Homo sapiens, UniProt P05556+P08648)", "T2 sequence (P08648 42-894 limits assumed)": "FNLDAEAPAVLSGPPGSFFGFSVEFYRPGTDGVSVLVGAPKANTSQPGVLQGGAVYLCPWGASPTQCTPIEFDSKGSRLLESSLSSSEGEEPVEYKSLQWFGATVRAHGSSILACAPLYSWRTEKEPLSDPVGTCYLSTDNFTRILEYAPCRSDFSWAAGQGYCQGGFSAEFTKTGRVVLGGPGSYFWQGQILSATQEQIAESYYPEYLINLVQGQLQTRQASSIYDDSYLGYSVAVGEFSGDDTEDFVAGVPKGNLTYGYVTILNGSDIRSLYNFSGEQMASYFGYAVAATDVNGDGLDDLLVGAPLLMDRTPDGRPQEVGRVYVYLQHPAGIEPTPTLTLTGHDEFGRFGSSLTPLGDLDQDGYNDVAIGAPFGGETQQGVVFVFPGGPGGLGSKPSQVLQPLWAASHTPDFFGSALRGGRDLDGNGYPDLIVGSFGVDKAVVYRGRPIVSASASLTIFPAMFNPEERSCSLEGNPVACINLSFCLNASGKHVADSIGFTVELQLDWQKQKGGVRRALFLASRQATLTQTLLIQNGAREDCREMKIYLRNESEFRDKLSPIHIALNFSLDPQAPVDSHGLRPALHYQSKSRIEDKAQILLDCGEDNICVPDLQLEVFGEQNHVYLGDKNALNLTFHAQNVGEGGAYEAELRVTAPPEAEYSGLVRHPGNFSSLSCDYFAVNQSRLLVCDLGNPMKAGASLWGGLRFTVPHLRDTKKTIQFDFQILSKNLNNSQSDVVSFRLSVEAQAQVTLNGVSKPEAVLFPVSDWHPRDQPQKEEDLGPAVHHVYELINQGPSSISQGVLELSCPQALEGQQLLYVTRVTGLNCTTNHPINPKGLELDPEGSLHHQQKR", "T2 sequence (P08648 895-1049 partner limits assumed)": "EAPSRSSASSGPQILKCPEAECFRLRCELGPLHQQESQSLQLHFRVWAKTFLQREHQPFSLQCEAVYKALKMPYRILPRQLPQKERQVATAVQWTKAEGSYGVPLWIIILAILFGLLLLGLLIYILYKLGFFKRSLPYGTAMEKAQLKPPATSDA", "T2 sequence (P05556 21-798)": "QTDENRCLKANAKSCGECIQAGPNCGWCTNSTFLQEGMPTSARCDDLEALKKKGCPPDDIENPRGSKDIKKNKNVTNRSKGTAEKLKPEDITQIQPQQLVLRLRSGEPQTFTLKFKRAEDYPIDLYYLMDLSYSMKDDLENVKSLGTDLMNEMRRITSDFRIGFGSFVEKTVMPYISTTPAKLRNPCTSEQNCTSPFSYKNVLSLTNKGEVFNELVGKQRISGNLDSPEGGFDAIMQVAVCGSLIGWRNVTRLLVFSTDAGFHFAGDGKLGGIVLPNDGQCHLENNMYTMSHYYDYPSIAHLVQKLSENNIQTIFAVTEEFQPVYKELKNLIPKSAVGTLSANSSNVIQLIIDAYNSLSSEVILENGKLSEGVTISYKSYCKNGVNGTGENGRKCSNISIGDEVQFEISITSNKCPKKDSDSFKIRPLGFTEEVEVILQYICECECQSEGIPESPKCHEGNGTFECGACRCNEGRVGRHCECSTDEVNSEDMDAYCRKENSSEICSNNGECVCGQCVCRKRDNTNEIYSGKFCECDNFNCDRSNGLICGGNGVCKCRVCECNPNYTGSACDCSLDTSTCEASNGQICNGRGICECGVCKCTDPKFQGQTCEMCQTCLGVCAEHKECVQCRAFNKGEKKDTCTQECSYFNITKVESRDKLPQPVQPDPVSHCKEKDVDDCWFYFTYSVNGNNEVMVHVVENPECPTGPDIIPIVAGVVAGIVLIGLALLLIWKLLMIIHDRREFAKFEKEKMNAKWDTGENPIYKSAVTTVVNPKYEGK", "experiment": "Cell adhesion assay: K562 cells to immobilized fibronectin (α5β1 integrin-mediated)", "protocol": "as §1, §2, §3"}, "αvβ3 integrin [3]": {"target": "T1, αvβ3 integrin", "design": "SK-MEL-24 cells (human malignant melanoma cells, expressing αvβ3 integrin); endogenous in cells; host or cells: SK-MEL-24 (ATCC)", "details": "cited from earlier work; for IC50: cell adhesion assay, Figure 1, ref ChemMedChem 2011, 6, 2264–2272; for αvβ3 behaviour (agonist/antagonist): reference compounds, entries 11-19, Dechantsreiter et al. (table footnotes b-h)"}, "α5β1 integrin [4]": {"target": "T2, α5β1 integrin", "design": "K562 cells (human erythroleukemic cells, expressing α5β1 integrin); endogenous in cells; host or cells: K-562 (ATCC), treated with PMA 40 h before the experiments", "details": "cited from earlier work; for IC50: cell adhesion assay, Figure 1, ref ChemMedChem 2011, 6, 2264–2272; for α5β1 behaviour (agonist/antagonist): reference compounds, entries 11-17, 41 (table footnotes b-f)"}}, "note": "Like-named read-outs stand apart in the source and are kept apart here."}
{"compound": "C#CCCCC1C(C(=O)NCc2ccc(N)cc2)=C(C)ON1C(=O)CC(=O)O", "note": "(stereo not drawn) [Compound 8]", "values": [{"measurement": "EC50", "setting": "αvβ3 integrin [1]", "result": "0.83 ± 0.05", "unit": "µM"}, {"measurement": "αvβ3 behaviour (agonist/antagonist)", "setting": "αvβ3 integrin [1]", "result": "agonist"}, {"measurement": "IC50", "setting": "α5β1 integrin [2]", "result": "> 1000", "unit": "µM"}]}
{"compound": "CC1=C(C(=O)NCc2ccc(N)cc2)C(CCCc2cn(CCNC(=O)OC(C)(C)C)nn2)N(C(=O)CC(=O)O)O1", "note": "(stereo not drawn) [Compound 17a]", "values": [{"measurement": "IC50", "setting": "αvβ3 integrin [1]", "result": "0.88 ± 0.07", "unit": "µM"}, {"measurement": "αvβ3 behaviour (agonist/antagonist)", "setting": "αvβ3 integrin [1]", "result": "antagonist"}, {"measurement": "IC50", "setting": "α5β1 integrin [2]", "result": "0.28 ± 0.03", "unit": "µM"}, {"measurement": "α5β1 behaviour (agonist/antagonist)", "setting": "α5β1 integrin [2]; K562 cell adhesion to fibronectin", "result": "antagonist"}]}
{"compound": "CC1=C(C(=O)NCc2ccc(N)cc2)C(CCCc2cn(CC(=O)OC(C)(C)C)nn2)N(C(=O)CC(=O)O)O1", "note": "(stereo not drawn) [Compound 20a]", "values": [{"measurement": "EC50", "setting": "αvβ3 integrin [1]", "result": "0.23 ± 0.08", "unit": "µM"}, {"measurement": "αvβ3 behaviour (agonist/antagonist)", "setting": "αvβ3 integrin [1]", "result": "agonist"}, {"measurement": "IC50", "setting": "α5β1 integrin [2]", "result": "> 1000", "unit": "µM"}]}
{"compound": "CC1=C(C(=O)NCc2ccc(N)cc2)C(CCCc2cn(CCC(=O)OC(C)(C)C)nn2)N(C(=O)CC(=O)O)O1", "note": "(stereo not drawn) [Compound 20b]", "values": [{"measurement": "EC50", "setting": "αvβ3 integrin [1]", "result": "0.068 ± 0.011", "unit": "µM"}, {"measurement": "αvβ3 behaviour (agonist/antagonist)", "setting": "αvβ3 integrin [1]", "result": "agonist"}, {"measurement": "IC50", "setting": "α5β1 integrin [2]", "result": "> 1000", "unit": "µM"}]}
{"compound": "CCOC(=O)CCCCn1cc(CCCC2C(C(=O)NCc3ccc(N)cc3)=C(C)ON2C(=O)CC(=O)O)nn1", "note": "(stereo not drawn) [Compound 26]", "values": [{"measurement": "EC50", "setting": "αvβ3 integrin [1]", "result": "0.61 ± 0.08", "unit": "µM"}, {"measurement": "αvβ3 behaviour (agonist/antagonist)", "setting": "αvβ3 integrin [1]", "result": "agonist"}, {"measurement": "IC50", "setting": "α5β1 integrin [2]", "result": "> 1000", "unit": "µM"}]}
{"compound": "CC1=C(C(=O)NCc2ccc(N)cc2)C(CCCc2cn(CCOCCOCCNC(=O)OC(C)(C)C)nn2)N(C(=O)CC(=O)O)O1", "note": "(stereo not drawn) [Compound 28]", "values": [{"measurement": "IC50", "setting": "αvβ3 integrin [1]", "result": "8.84 ± 0.14", "unit": "µM"}, {"measurement": "αvβ3 behaviour (agonist/antagonist)", "setting": "αvβ3 integrin [1]", "result": "antagonist"}, {"measurement": "IC50", "setting": "α5β1 integrin [2]", "result": "> 1000", "unit": "µM"}]}
{"compound": "CCOC(=O)COCCOCCn1cc(CCCC2C(C(=O)NCc3ccc(N)cc3)=C(C)ON2C(=O)CC(=O)O)nn1", "note": "(stereo not drawn) [Compound 30]", "values": [{"measurement": "IC50", "setting": "αvβ3 integrin [1]", "result": "> 1000", "unit": "µM"}, {"measurement": "IC50", "setting": "α5β1 integrin [2]", "result": "> 1000", "unit": "µM"}]}
{"compound": "CC1=C(C(=O)NCc2ccc(N)cc2)C(C)N(C(=O)CC(=O)O)O1", "note": "(stereo not drawn) [Ref A]", "values": [{"measurement": "IC50", "setting": "αvβ3 integrin [3]", "result": "0.032 ± 0.003", "unit": "µM"}, {"measurement": "αvβ3 IC50/EC50 (IC50 for antagonists)", "setting": "αvβ3 integrin [3]; cell adhesion to fibronectin", "result": "0.032 ± 0.003", "unit": "µM"}, {"measurement": "αvβ3 behaviour (agonist/antagonist)", "setting": "αvβ3 integrin [3]", "result": "antagonist"}, {"measurement": "IC50", "setting": "α5β1 integrin [4]", "result": "0.012 ± 0.004", "unit": "µM"}, {"measurement": "α5β1 IC50/EC50 (IC50 for antagonists)", "setting": "α5β1 integrin [4]; cell adhesion to fibronectin", "result": "0.012 ± 0.004", "unit": "µM"}, {"measurement": "α5β1 behaviour (agonist/antagonist)", "setting": "α5β1 integrin [4]", "result": "antagonist"}]}
{"compound": "CC1=C(C(=O)NCc2ccc(N)cc2)C(C(C)C)N(C(=O)CC(=O)O)O1", "note": "(stereo not drawn) [Ref B]", "values": [{"measurement": "IC50", "setting": "αvβ3 integrin [3]", "result": "0.0088 ± 0.0006", "unit": "µM"}, {"measurement": "αvβ3 IC50/EC50 (IC50 for antagonists)", "setting": "αvβ3 integrin [3]; cell adhesion to fibronectin", "result": "0.0088 ± 0.0006", "unit": "µM"}, {"measurement": "αvβ3 behaviour (agonist/antagonist)", "setting": "αvβ3 integrin [3]", "result": "antagonist"}, {"measurement": "IC50", "setting": "α5β1 integrin [4]", "result": "0.00105 ± 0.0003", "unit": "µM"}, {"measurement": "α5β1 behaviour (agonist/antagonist)", "setting": "α5β1 integrin [4]", "result": "antagonist"}]}
{"compound": "CCC(C)C1C(C(=O)NCc2ccc(N)cc2)=C(C)ON1C(=O)CC(=O)O", "note": "(stereo not drawn) [Ref C]", "values": [{"measurement": "IC50", "setting": "αvβ3 integrin [3]", "result": "0.36 ± 0.07", "unit": "µM"}, {"measurement": "αvβ3 IC50/EC50 (IC50 for antagonists)", "setting": "αvβ3 integrin [3]; cell adhesion to fibronectin", "result": "0.360 ± 0.070", "unit": "µM"}, {"measurement": "αvβ3 behaviour (agonist/antagonist)", "setting": "αvβ3 integrin [3]", "result": "antagonist"}, {"measurement": "IC50", "setting": "α5β1 integrin [4]", "result": "1.32 ± 0.08", "unit": "µM"}, {"measurement": "α5β1 IC50/EC50 (IC50 for antagonists)", "setting": "α5β1 integrin [4]; cell adhesion to fibronectin", "result": "1.320 ± 0.080", "unit": "µM"}, {"measurement": "α5β1 behaviour (agonist/antagonist)", "setting": "α5β1 integrin [4]", "result": "antagonist"}]}
{"compound": "CC1=C(C(=O)NCc2ccc(N)cc2)C(C2CCCCC2)N(C(=O)CC(=O)O)O1", "note": "(stereo not drawn) [Ref D]", "values": [{"measurement": "IC50", "setting": "αvβ3 integrin [3]", "result": "0.02 ± 0.006", "unit": "µM"}, {"measurement": "αvβ3 IC50/EC50 (IC50 for antagonists)", "setting": "αvβ3 integrin [3]; cell adhesion to fibronectin", "result": "0.020 ± 0.006", "unit": "µM"}, {"measurement": "αvβ3 behaviour (agonist/antagonist)", "setting": "αvβ3 integrin [3]", "result": "antagonist"}, {"measurement": "IC50", "setting": "α5β1 integrin [4]", "result": "1.03 ± 0.05", "unit": "µM"}, {"measurement": "α5β1 IC50/EC50 (IC50 for antagonists)", "setting": "α5β1 integrin [4]; cell adhesion to fibronectin", "result": "1.030 ± 0.050", "unit": "µM"}, {"measurement": "α5β1 behaviour (agonist/antagonist)", "setting": "α5β1 integrin [4]", "result": "antagonist"}]}
{"compound": "Cc1ccccc1NC(=O)N1C(=O)CC1CC(=O)NCC(=O)O", "note": "(stereo not drawn) [Ref E, 2-(2-(4-Oxo-(o-tolylcarbamoyl)azetidin-2-yl)acetamido)acetic acid]", "values": [{"measurement": "αvβ3 IC50/EC50", "setting": "αvβ3 integrin [3]; cell adhesion to fibronectin", "result": ">1000", "unit": "µM"}, {"measurement": "α5β1 IC50/EC50 (EC50 for agonists)", "setting": "α5β1 integrin [4]; cell adhesion to fibronectin", "result": "0.0129 ± 0.0006", "unit": "µM"}, {"measurement": "α5β1 behaviour (agonist/antagonist)", "setting": "α5β1 integrin [4]", "result": "agonist"}]}
{"compound": "Ac-Asp-Arg-Leu-Asp-Ser-OH (Ac-DRLDS-OH) [standard antagonist of cell adhesion mediated by αvβ3 integrin]", "values": [{"measurement": "αvβ3 IC50/EC50 (IC50 for antagonists)", "setting": "αvβ3 integrin [3]; reference compound", "result": "0.025 ± 0.003", "unit": "µM"}, {"measurement": "αvβ3 behaviour (agonist/antagonist)", "setting": "αvβ3 integrin [3]", "result": "antagonist"}, {"measurement": "α5β1 IC50/EC50", "setting": "α5β1 integrin [4]; reference compound", "result": ">1000", "unit": "µM"}]}
{"compound": "H-Gly-Arg-Gly-Asp-Thr-Pro-OH (H-GRGDTP-OH) [standard antagonist of cell adhesion mediated by α5β1 integrin]", "values": [{"measurement": "αvβ3 IC50/EC50 (IC50 for antagonists)", "setting": "αvβ3 integrin [3]; reference compound", "result": "0.926 ± 0.006", "unit": "µM"}, {"measurement": "αvβ3 behaviour (agonist/antagonist)", "setting": "αvβ3 integrin [3]", "result": "antagonist"}, {"measurement": "α5β1 IC50/EC50 (IC50 for antagonists)", "setting": "α5β1 integrin [4]; reference compound", "result": "0.00062 ± 0.00009", "unit": "µM"}, {"measurement": "α5β1 behaviour (agonist/antagonist)", "setting": "α5β1 integrin [4]", "result": "antagonist"}]}
